Experimental data reported in PubChem BioAssay (NCI).
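Dose response: 5 concentrations. Exposure: 48 h. Format: 96-well plates. Endpoint: linear interpolation; highest concentration if not reached. GI50 = concentration required for 50% inhibition of growth. TGI: total growth inhibition.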

Legend:
Assay in all cases: NCI tumour cell line growth inhibition, 48 h
[1] = system: K-562 leukemia
[2] = system: HCT-15 colon
[3] = system: OVCAR-3 ovarian
[4] = system: IGROV1 ovarian
[5] = system: ACHN renal
[6] = system: SW-620 colon
[7] = system: HL-60(TB) leukemia
[8] = system: UO-31 renal
[9] = system: HT29 colon
[10] = system: NCI-H226 lung
[11] = system: NCI-H522 lung
[12] = system: LOX IMVI melanoma
[13] = system: SK-MEL-28 melanoma
[14] = system: SK-MEL-2 melanoma
[15] = system: MALME-3M melanoma
[16] = system: A498 renal
[17] = system: MOLT-4 leukemia
[18] = system: NCI/ADR-RES ovarian
[19] = system: HOP-62 NSCLC
[20] = system: UACC-62 melanoma
[21] = system: NCI-H23 lung
[22] = system: 786-0 renal
[23] = system: SNB-75 CNS
[24] = system: CAKI-1 renal
[25] = system: CCRF-CEM leukemia
[26] = system: HCC-2998 colon
[27] = system: HS 578T breast
[28] = system: SF-268 CNS
[29] = system: SF-295 CNS
[30] = system: MDA-MB-435
[31] = system: RXF 393 renal
[32] = system: TK-10 renal
[33] = system: MDA-MB-231 breast
[34] = system: RPMI-8226 leukemia
[35] = system: SN12C renal
[36] = system: KM12 colon
[37] = system: DU-145 prostate
[38] = system: T-47D breast
[39] = system: OVCAR-4 ovarian
[40] = system: SF-539 CNS
[41] = system: OVCAR-5 ovarian
[42] = system: OVCAR-8 ovarian
[43] = system: HOP-92 NSCLC
[44] = system: NCI-H460 lung
[45] = system: SK-MEL-5 melanoma
[46] = system: MCF7 breast
[47] = system: UACC-257 melanoma
[48] = system: A549 NSCLC
[49] = system: COLO 205 colon
[50] = system: SR leukemia
[51] = system: SK-OV-3 ovarian
[52] = system: MDA-MB-468 breast
[53] = system: SNB-19 CNS
[54] = system: EKVX NSCLC
[55] = system: M14 melanoma
[56] = system: U251 CNS
[57] = system: PC-3 prostate
[58] = system: HCT-116 colon
[59] = system: BT-549 breast

COc1ccc(C(=O)COc2ccc(NC(=O)Nc3ccc(Cl)c(C(F)(F)F)c3)cc2)cc1
GI50 [1]: 4.92 µM | TGI [1]: > 100 µM | GI50 [2]: 3.09 µM | TGI [2]: > 100 µM | GI50 [3]: 3.3 µM | TGI [3]: > 100 µM | GI50 [4]: 6 µM | TGI [4]: > 100 µM | GI50 [5]: 3.35 µM | TGI [5]: > 100 µM | GI50 [6]: 5.3 µM | TGI [6]: > 100 µM | GI50 [7]: 3.09 µM | TGI [7]: 22.7 µM | GI50 [8]: 3.75 µM | TGI [8]: > 100 µM | GI50 [9]: 4.49 µM | TGI [9]: > 100 µM | GI50 [10]: 3.61 µM | TGI [10]: 21 µM | GI50 [11]: 2.96 µM | TGI [11]: > 100 µM | GI50 [12]: 3.2 µM | TGI [12]: > 100 µM | GI50 [13]: 3.39 µM | TGI [13]: 33.9 µM | GI50 [14]: 2.86 µM | TGI [14]: 34.4 µM | GI50 [15]: 2.84 µM | TGI [15]: 18.2 µM | GI50 [16]: 2.74 µM | TGI [16]: 9.86 µM | GI50 [17]: 2.84 µM | TGI [17]: > 100 µM | GI50 [18]: 3.69 µM | TGI [18]: > 100 µM | GI50 [19]: 6.69 µM | TGI [19]: 96.4 µM | GI50 [20]: 2.79 µM | TGI [20]: 9.38 µM | GI50 [21]: 4.52 µM | TGI [21]: > 100 µM | GI50 [22]: 4.57 µM | TGI [22]: 24.5 µM | GI50 [23]: 1.67 µM | TGI [23]: 14.3 µM | GI50 [24]: 4.36 µM | TGI [24]: > 100 µM | GI50 [25]: 3.71 µM | TGI [25]: > 100 µM | GI50 [26]: 3.8 µM | TGI [26]: 34.2 µM | GI50 [27]: 2.89 µM | TGI [27]: 9.97 µM | GI50 [28]: 4.04 µM | TGI [28]: > 100 µM | GI50 [29]: 3.35 µM | TGI [29]: 25.9 µM | GI50 [30]: 3.63 µM | TGI [30]: > 100 µM | GI50 [31]: 4.29 µM | TGI [31]: 15.3 µM | GI50 [32]: 7.9 µM | TGI [32]: > 100 µM | GI50 [33]: 3.81 µM | TGI [33]: 26.1 µM | GI50 [34]: 3.45 µM | TGI [34]: > 100 µM | GI50 [35]: 4.8 µM | TGI [35]: > 100 µM | GI50 [36]: 2.88 µM | TGI [36]: 8.71 µM | GI50 [37]: 5.78 µM | TGI [37]: > 100 µM | GI50 [38]: 3.06 µM | TGI [38]: 92.3 µM | GI50 [39]: 2.87 µM | TGI [39]: 17.9 µM | GI50 [40]: 4.12 µM | TGI [40]: 26.4 µM | GI50 [41]: 5.24 µM | TGI [41]: > 100 µM | GI50 [42]: 4.21 µM | TGI [42]: > 100 µM | GI50 [43]: 3.08 µM | TGI [43]: 10 µM | GI50 [44]: 3.34 µM | TGI [44]: > 100 µM | GI50 [45]: 3.14 µM | TGI [45]: 19.7 µM | GI50 [46]: 2.6 µM | TGI [46]: > 100 µM | GI50 [47]: 2.95 µM | TGI [47]: > 100 µM | GI50 [48]: 3.2 µM | TGI [48]: > 100 µM | GI50 [49]: 3.08 µM | TGI [49]: > 100 µM | GI50 [50]: 3.13 µM | TGI [50]: > 100 µM | GI50 [51]: 8.07 µM | TGI [51]: > 100 µM | GI50 [52]: 2.8 µM | TGI [52]: 8.67 µM | GI50 [53]: 3.86 µM | TGI [53]: 22.7 µM | GI50 [54]: 3.15 µM | TGI [54]: 16.6 µM | GI50 [55]: 2.72 µM | TGI [55]: > 100 µM | GI50 [56]: 3.71 µM | TGI [56]: 26.1 µM | GI50 [57]: 3.08 µM | TGI [57]: > 100 µM | GI50 [58]: 3.87 µM | TGI [58]: > 100 µM | GI50 [59]: 4.38 µM | TGI [59]: 40.8 µM
